Patent publication US20130323165A1, “Magnetic Nanoplatforms for Theranostic and Multi-Modal Imaging Applications” (NORTHEASTERN UNIVERSITY, priority 2010, published 2013)
Counter-ions that a name gives are not always drawn.

Experiments:
[1] = Drug loading into MAG-C cationic liposomes by HPLC; type: physicochemical; settings: 3 mol % drug
Protocol: The influence of MAG-C on the efficiency of loading chemotherapeutic agents (hydrophilic and lipophilic) in cationic liposomes was evaluated by HPLC. […] The inclusion of PEG in MAG-C cationic liposomes improved incorporation of vinblastine sulfate from […]. We also evaluated the effect of MAG-C on the incorporation efficiency of the hydrophilic drug, dacarbazine at 3 mol %.

B16-F10 melanoma tumor = settings: 1.35 mg/kg
[2] = tested on: B16-F10 melanoma metastasis; assay: Tumor metastases (melanin pigmentation, pleural cavity)
[3] = cationic liposomes without MAG-C

| incorporation (loading) efficiency ([1]; MAG-C cationic liposomes with PEG included) [%] | incorporation (loading) efficiency [1, 3] [%] | incorporation (loading) efficiency ([1]; cationic liposomes with 2.5 mg/ml MAG-C (SPION)) | Compound | incorporation (loading) efficiency ([1]; cationic liposomes with 0.5 mg/ml MAG-C (SPION)) | tumor volumes compared to the untreated control group (B16-F10 melanoma tumor) | number of tumor nodules in the livers ([2]; compared to the saline control) | mice with evidence of metastasis within the pleural cavity ([2]; free drug) |
| --- | --- | --- | --- | --- | --- | --- | --- |
| 7873.73 | 7876.03 | – | COc1cc([C@@H]2c3cc4c(cc3[C@@H](O[C@@H]3O[C@@H]5CO[C@@H](C)O[C@H]5[C@H](O)[C@H]3O)[C@H]3COC(=O)[C@H]23)OCO4)cc(OC)c1O [etoposide] | did not alter the incorporation efficiency | – | – | – |
| – | 3273.6 | no further decrease was observed | CC[C@]1(O)C[C@@H]2CN(CCc3c([nH]c4ccccc34)[C@@](C(=O)OC)(c3cc4c(cc3OC)N(C)[C@H]3[C@@](O)(C(=O)OC)[C@H](OC(C)=O)[C@]5(CC)C=CCN6CC[C@]43[C@@H]65)C2)C1 [vinblastine sulfate] | – | no significant difference in the tumor volumes | less | 5/5 |
